In patent US9486506B2 (Novo Nordisk A/S, priority 2011, dated 2016):
Numbered stars: 1 amine (or outer) side, 2 acyl side, 3 side chain; on linkers, the order of the positions; unused ones are H or OH. Side chains are listed from the residue outwards. Peptide text beside a SMILES is read from it. * marks the point of attachment. C16 diacid = O=C(O)CCCCCCCCCCCCCCC(=O)*; γGlu = O=C(O)[C@H](CCC(=O)[*:2])N[*:1]; AEEA = NCCOCCOCC(=O)O

Target: T1, glucagon receptor (Homo sapiens, UniProt P47871)
T1 construct: expressed in transfected cells
T1 sequence (P47871 26-477): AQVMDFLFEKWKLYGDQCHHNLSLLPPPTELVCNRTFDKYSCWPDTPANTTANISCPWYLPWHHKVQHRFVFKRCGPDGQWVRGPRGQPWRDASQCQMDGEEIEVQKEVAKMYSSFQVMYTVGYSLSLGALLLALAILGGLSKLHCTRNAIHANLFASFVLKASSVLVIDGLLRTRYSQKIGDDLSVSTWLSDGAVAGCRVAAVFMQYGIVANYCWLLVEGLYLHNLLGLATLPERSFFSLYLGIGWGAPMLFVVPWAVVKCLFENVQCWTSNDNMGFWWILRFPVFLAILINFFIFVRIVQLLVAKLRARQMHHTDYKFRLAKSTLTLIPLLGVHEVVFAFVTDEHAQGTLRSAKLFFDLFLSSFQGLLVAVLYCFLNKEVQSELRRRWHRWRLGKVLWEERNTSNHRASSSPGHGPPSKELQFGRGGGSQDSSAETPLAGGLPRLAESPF
Assay: Assay (I) Glucagon activity (cAMP biosensor, FLIPR)
Format: cell-based

Row | Compound | EC50 [nM]
1 | CC(C)C[C@H](NC(=O)[C@H](Cc1ccc(O)cc1)NC(=O)[C@H](CCCNC(=N)N)NC(=O)[C@H](CO)NC(=O)[C@H](Cc1ccc(O)cc1)NC(=O)[C@H](CC(=O)O)NC(=O)[C@H](CO)NC(=O)[C@@H](NC(=O)[C@H](Cc1ccccc1)NC(=O)[C@@H](NC(=O)CNC(=O)[C@H](CCC(N)=O)NC(=O)[C@H](CO)NC(=O)[C@@H](N)Cc1c[nH]cn1)[C@@H](C)O)[C@@H](C)O)C(=O)N[C@@H](CCC(=O)O)C(=O)N[C@@H](CO)C(=O)N[C@@H](CCCNC(=N)N)C(=O)N[C@@H](CCCNC(=N)N)C(=O)N[C@@H](C)C(=O)N[C@@H](CCC(N)=O)C(=O)N[C@@H](CCC(=O)O)C(=O)N[C@@H](Cc1ccccc1)C(=O)N[C@H](C(=O)N[C@@H](CCCCNC(=O)CC[C@H](NC(=O)CC[C@H](NC(=O)COCCOCCNC(=O)COCCOCCNC(=O)CC[C@H](NC(=O)CCCCCCCCCCCCCCC(=O)O)C(=O)O)C(=O)O)C(=O)O)C(=O)N[C@@H](Cc1c[nH]c2ccccc12)C(=O)N[C@@H](CC(C)C)C(=O)N[C@@H](CC(C)C)C(=O)N[C@@H](CO)C(=O)N[C@H](C(=O)O)[C@@H](C)O)C(C)C [Example 71, N^ε24-[(4S)-4-carboxy-4-[[(4S)-4-carboxy-4-[[2-[2-[2-[[2-[2-[2-[[(4S)-4-carboxy-4-(15-carboxypentadecanoylamino)butanoyl]amino]ethoxy]ethoxy]acetyl]amino]ethoxy]ethoxy]acetyl]amino]butanoyl]amino]butanoyl]-[Arg12,Glu15,Glu21,Lys24,Leu27,Ser28]-Glucagon] (H-HSQGTFTSDYSRYLESRRAQEFVK([γGlu-γGlu-AEEA-AEEA-γGlu-C16 diacid])WLLST-OH) | 0.072
2 | CC(C)C[C@H](NC(=O)[C@H](Cc1ccc(O)cc1)NC(=O)[C@H](CCCNC(=N)N)NC(=O)[C@H](CO)NC(=O)[C@H](Cc1ccc(O)cc1)NC(=O)[C@H](CC(=O)O)NC(=O)[C@H](CO)NC(=O)[C@@H](NC(=O)[C@H](Cc1ccccc1)NC(=O)[C@@H](NC(=O)CNC(=O)[C@H](CCC(N)=O)NC(=O)[C@H](CO)NC(=O)[C@@H](N)Cc1c[nH]cn1)[C@@H](C)O)[C@@H](C)O)C(=O)N[C@@H](CC(=O)O)C(=O)N[C@@H](C)C(=O)N[C@@H](CCCNC(=N)N)C(=O)N[C@@H](CCCNC(=N)N)C(=O)N[C@@H](C)C(=O)N[C@@H](CCC(N)=O)C(=O)N[C@@H](CC(=O)O)C(=O)N[C@@H](Cc1ccccc1)C(=O)N[C@H](C(=O)N[C@@H](CCCCNC(=O)CC[C@H](NC(=O)CC[C@H](NC(=O)CC[C@H](NC(=O)CC[C@H](NC(=O)CCCCCCCCCCCCCCC(=O)O)C(=O)O)C(=O)O)C(=O)O)C(=O)O)C(=O)N[C@@H](Cc1c[nH]c2ccccc12)C(=O)N[C@@H](CC(C)C)C(=O)N[C@@H](CC(C)C)C(=O)N[C@@H](CO)C(=O)N[C@H](C(=O)O)[C@@H](C)O)C(C)C [Example 73, N^ε24-[(4S)-4-carboxy-4-[[(4S)-4-carboxy-4-[[(4S)-4-carboxy-4-[[(4S)-4-carboxy-4-(15-carboxypentadecanoylamino)butanoyl]amino]butanoyl]amino]butanoyl]amino]butanoyl]-[Arg12,Ala16,Lys24,Leu27,Ser28]-Glucagon] (H-HSQGTFTSDYSRYLDARRAQDFVK([γGlu-γGlu-γGlu-γGlu-C16 diacid])WLLST-OH) | 0.106
3 | CC(C)C[C@H](NC(=O)[C@H](CC(=O)O)NC(=O)[C@H](CC(C)C)NC(=O)[C@H](Cc1ccc(O)cc1)NC(=O)[C@H](CCCNC(=N)N)NC(=O)[C@H](CO)NC(=O)[C@H](Cc1ccc(O)cc1)NC(=O)[C@H](CC(=O)O)NC(=O)[C@H](CO)NC(=O)[C@@H](NC(=O)[C@H](Cc1ccccc1)NC(=O)[C@@H](NC(=O)CNC(=O)[C@H](CCC(N)=O)NC(=O)[C@H](CO)NC(=O)[C@@H](N)Cc1c[nH]cn1)[C@@H](C)O)[C@@H](C)O)C(=O)N[C@@H](CCCNC(=N)N)C(=O)N[C@@H](CCCNC(=N)N)C(=O)N[C@@H](C)C(=O)N[C@@H](CCC(N)=O)C(=O)N[C@@H](CC(=O)O)C(=O)N[C@@H](Cc1ccccc1)C(=O)N[C@H](C(=O)N[C@@H](CCCCNC(=O)CC[C@H](NC(=O)CC[C@H](NC(=O)CC[C@H](NC(=O)CC[C@H](NC(=O)CCCCCCCCCCCCCCC(=O)O)C(=O)O)C(=O)O)C(=O)O)C(=O)O)C(=O)N[C@@H](Cc1c[nH]c2ccccc12)C(=O)N[C@@H](CC(C)C)C(=O)N[C@@H](CC(C)C)C(=O)N[C@@H](CO)C(=O)N[C@H](C(=O)O)[C@@H](C)O)C(C)C [Example 74, N^ε24-[(4S)-4-carboxy-4-[[(4S)-4-carboxy-4-[[(4S)-4-carboxy-4-[[(4S)-4-carboxy-4-(15-carboxypentadecanoylamino)butanoyl]amino]butanoyl]amino]butanoyl]amino]butanoyl]-[Arg12,Leu16,Lys24,Leu27,Ser28]-Glucagon] (H-HSQGTFTSDYSRYLDLRRAQDFVK([γGlu-γGlu-γGlu-γGlu-C16 diacid])WLLST-OH) | 0.109
4 | CC(C)C[C@H](NC(=O)[C@H](Cc1c[nH]c2ccccc12)NC(=O)[C@H](CCCCNC(=O)CC[C@H](NC(=O)CC[C@H](NC(=O)COCCOCCNC(=O)COCCOCCNC(=O)CC[C@H](NC(=O)CCCCCCCCCCCCCCC(=O)O)C(=O)O)C(=O)O)C(=O)O)NC(=O)[C@@H](NC(=O)[C@H](Cc1ccccc1)NC(=O)[C@H](CC(=O)O)NC(=O)[C@H](CCC(N)=O)NC(=O)[C@H](C)NC(=O)[C@H](CCCNC(=N)N)NC(=O)[C@H](CCCNC(=N)N)NC(=O)[C@@H](NC(=O)[C@H](CC(=O)O)NC(=O)[C@H](CC(C)C)NC(=O)[C@H](Cc1ccc(O)cc1)NC(=O)[C@H](CCCCN)NC(=O)[C@H](CO)NC(=O)[C@H](Cc1ccc(O)cc1)NC(=O)[C@H](CC(=O)O)NC(=O)[C@H](CO)NC(=O)[C@@H](NC(=O)[C@H](Cc1ccccc1)NC(=O)[C@@H](NC(=O)CNC(=O)[C@H](CCC(N)=O)NC(=O)[C@H](CO)NC(=O)[C@@H](N)Cc1c[nH]cn1)[C@@H](C)O)[C@@H](C)O)[C@@H](C)O)C(C)C)C(=O)N[C@@H](CC(C)C)C(=O)N[C@@H](CO)C(=O)N[C@H](C(=O)O)[C@@H](C)O [Example 81, N^ε24-[(4S)-4-carboxy-4-[[(4S)-4-carboxy-4-[[2-[2-[2-[[2-[2-[2-[[(4S)-4-carboxy-4-(15-carboxypentadecanoylamino)butanoyl]amino]ethoxy]ethoxy]acetyl]amino]ethoxy]ethoxy]acetyl]amino]butanoyl]amino]butanoyl]-[Thr16,Lys24,Leu27,Ser28]-Glucagon] | 0.017
5 | CC(C)C[C@H](NC(=O)[C@H](Cc1c[nH]c2ccccc12)NC(=O)[C@H](CCCCNC(=O)CC[C@H](NC(=O)CC[C@H](NC(=O)COCCOCCNC(=O)COCCOCCNC(=O)CC[C@H](NC(=O)CCCCCCCCCCCCCCC(=O)O)C(=O)O)C(=O)O)C(=O)O)NC(=O)[C@@H](NC(=O)[C@H](Cc1ccccc1)NC(=O)[C@H](CC(=O)O)NC(=O)[C@H](CCC(N)=O)NC(=O)[C@H](C)NC(=O)[C@H](CCCNC(=N)N)NC(=O)[C@H](CCCNC(=N)N)NC(=O)[C@@H](NC(=O)[C@H](CC(=O)O)NC(=O)[C@H](CC(C)C)NC(=O)[C@H](Cc1ccc(O)cc1)NC(=O)[C@H](CCCNC(=N)N)NC(=O)[C@H](CO)NC(=O)[C@H](Cc1ccc(O)cc1)NC(=O)[C@H](CC(=O)O)NC(=O)[C@H](CO)NC(=O)[C@@H](NC(=O)[C@H](Cc1ccccc1)NC(=O)[C@@H](NC(=O)CNC(=O)[C@H](CCC(N)=O)NC(=O)[C@H](CO)NC(=O)[C@@H](N)Cc1c[nH]cn1)[C@@H](C)O)[C@@H](C)O)[C@@H](C)O)C(C)C)C(=O)N[C@@H](CC(C)C)C(=O)N[C@@H](CO)C(=O)N[C@H](C(=O)O)[C@@H](C)O [Example 82, N^ε24-[(4S)-4-carboxy-4-[[(4S)-4-carboxy-4-[[2-[2-[2-[[2-[2-[2-[[(4S)-4-carboxy-4-(15-carboxypentadecanoylamino)butanoyl]amino]ethoxy]ethoxy]acetyl]amino]ethoxy]ethoxy]acetyl]amino]butanoyl]amino]butanoyl]-[Arg12,Thr16,Lys24,Leu27,Ser28]-Glucagon] (H-HSQGTFTSDYSRYLDTRRAQDFVK([γGlu-γGlu-AEEA-AEEA-γGlu-C16 diacid])WLLST-OH) | 0.025
6 | CC(C)C[C@H](NC(=O)[C@H](CC(=O)O)NC(=O)[C@H](CC(C)C)NC(=O)[C@H](Cc1ccc(O)cc1)NC(=O)[C@H](CCCNC(=N)N)NC(=O)[C@H](CO)NC(=O)[C@H](Cc1ccc(O)cc1)NC(=O)[C@H](CC(=O)O)NC(=O)[C@H](CO)NC(=O)[C@@H](NC(=O)[C@H](Cc1ccccc1)NC(=O)[C@@H](NC(=O)CNC(=O)[C@H](CCC(N)=O)NC(=O)[C@H](CO)NC(=O)[C@@H](N)Cc1c[nH]cn1)[C@@H](C)O)[C@@H](C)O)C(=O)N[C@@H](CCCNC(=N)N)C(=O)N[C@@H](CCCNC(=N)N)C(=O)N[C@@H](C)C(=O)N[C@@H](CCC(N)=O)C(=O)N[C@@H](CC(=O)O)C(=O)N[C@@H](Cc1ccccc1)C(=O)N[C@H](C(=O)N[C@@H](CCCCNC(=O)CC[C@H](NC(=O)CC[C@H](NC(=O)CC[C@H](NC(=O)CCCCCCCCCCCCCCC(=O)O)C(=O)O)C(=O)O)C(=O)O)C(=O)N[C@@H](Cc1c[nH]c2ccccc12)C(=O)N[C@@H](CC(C)C)C(=O)N[C@@H](CC(C)C)C(=O)N[C@@H](CO)C(=O)N[C@H](C(=O)O)[C@@H](C)O)C(C)C [Example 91, N^ε24-[(4S)-4-carboxy-4-[[(4S)-4-carboxy-4-[[(4S)-4-carboxy-4-(15-carboxypentadecanoylamino)butanoyl]amino]butanoyl]amino]butanoyl]-[Arg12,Leu16,Lys24,Leu27,Ser28]-Glucagon] (H-HSQGTFTSDYSRYLDLRRAQDFVK([γGlu-γGlu-γGlu-C16 diacid])WLLST-OH) | 0.027
